Assay results published in article PMC11778240, “Synthesis and preclinical evaluation of tigilanol tiglate analogs as latency-reversing agents for the eradication of HIV” (Science Advances, 2025).

What was measured:
PKC-β fused to GFP = target: T1, PKC-β fused to GFP (Homo sapiens, UniProt P05771); assay: PKC-GFP translocation assay in CHO-K1 cells (confocal microscopy); format: cell-based; details: 500 nM, within 10 min
T1 construct: host or cells: CHO-K1
Source text: (§1) Using confocal microscopy, this assay allows us to visualize, in real time, cell permeation and the ligand-induced translocation of specific PKC isoforms from the cytosol to the membranes of the cell—the hallmark of PKC activation ([29], [68]). […] In alignment with past studies on the activation of PKC in CHO-K1 cells ([22], [65], [69]), we observed strong plasma membrane translocation of PKC-β (Fig. 7C).
(§2) Agar stabs of DH5-alpha (high copy) bacterial cells, containing plasmids for expression of mammalian PKC-δ (Plasmid #: 178856) and PKC-β (Plasmid #: #112265) fused to EGFP under constitutive mammalian promoters CAG and CMV, respectively, were purchased from Addgene.
(§3) Upon receipt, these stabs were incubated at 37 °C in 5% CO2 for 24 hours to allow sufficient bacterial growth. Following incubation, a sterile pipette tip was utilized to streak bacteria onto LB agar plates that are positive for the respective antibiotic that selects for each plasmid. For bacteria containing Plasmid #: 178856, bacteria were streaked onto CellPro™ LB (Lennox) + Ampicillin 100 μg/ml while bacteria containing Plasmid #: 112265 was streaked onto CellPro™ LB (Miller) + Kanamycin 50 μg/ml and incubated for 24 hours at 37 °C in 5% CO2 in order to isolate single colonies of bacteria. Single, isolated bacterial colonies were selected utilizing a sterile pipette tip and placed in polypropylene culture tubes with vented stoppers containing 2mL of LB Broth Miller (Catalog No. BP1426-500) and the respective antibiotic for each plasmid at the recommended concentration of 100 μg/ml for ampicillin and 50 μg/ml for kanamycin. Following inoculation, these liquid cultures were placed on a shaker at 37 °C at 225rpm for 24 hours. The next day, the plasmids were sequestered and purified from the bacteria utilizing the Thermo Scientific™ GeneJET Plasmid Miniprep Kit (Catalog No. K0502).
(§4) PKC-β/PKC-δ plasmid purification
(§5) To sequester and purify plasmid from each culture tube, bacteria was resuspended in culture and transferred to sterile 1.7mL microcentrifuge tubes with 1 mL of bacteria placed into each tube. To harvest the bacteria, microcentrifuge tubes were placed in a microcentrifuge and spun at 8000 rpm for 2 minutes at room temperature. Note that all subsequent centrifugations were performed in a tabletop microcentrifuge at room temperature. Following centrifugation, the supernatant was decanted and 250 μL of Resuspension solution was added to the pelleted cells and vortexed.
(§6) Afterwards, 250 μL of Lysis Solution was added to the resuspended bacterial cells and tubes were inverted 4-6 times and allowed to incubate for no more than 5 minutes to avoid denaturation of the plasmid DNA. After lysing the bacterial cells, 350 μL of Neutralization Solution was immediately added and tubes were inverted 4-6 times. Tubes were then centrifugated for 5 minutes at 14,000 rpm to pellet the cell debris and chromosomal DNA. The supernatant was then carefully aspirated using a pipette, taking care not to distribute the white precipitate of cell and DNA debris and transferred to the GeneJET spin columns, provided in the GeneJET Miniprep Kit. The spin columns were subsequently centrifugated for 1 minute, the flow-through was discarded, and the column was placed back into the same collection tube. 500 μL of Wash Solution, diluted with 96% ethanol, was added to the column, and the column was centrifugated for 1 minute at 14,000 rpm.
(§7) The flow-through was discarded and the column was placed back into the same collection tube.
(§8) This wash process was repeated a second time, after which the spin columns were centrifugated for an additional 1 minute to ensure all residual Wash solution was removed from the plasmids.
(§9) The GeneJET spin columns were then transferred to new 1.7mL microcentrifuge tubes, and 50 μL of Elution Buffer was added to the center of the spin column to allow optimal elution of the plasmid
(§10) DNA. Before centrifugating for 2 minutes, the columns were allowed to incubate for 2 minutes at […]
(§11) room temperature. […]

PKC-δ fused to GFP = target: T2, PKC-δ fused to GFP (Homo sapiens, UniProt Q05655); assay: as above; format: cell-based; details: 1500 nM, within 10 min
T2 construct: host or cells: CHO-K1
Source text: as §1, §2, §3, §4, §5, §6, §7, §8, §9, §10, §11

tumor necrosis factor–α = assay: TNF-α ELISA, A549 cells; format: cell-based, Human; details: for TNF-α (ELISA): 24 hours, lowest detectable limit 3.5 pg/ml
Experimental: We stimulated A549 cells with SUW402 and SUW431 at the same concentrations used in the NF-κB activation assay: 500 and 50 nM (figs. S1 and S2).
In efforts to replicate the conditions of the in vitro NF -κB assay, 5 x 10^4 A549 cells were plated per well on Corning® 96-well Clear Round Bottom TC-treated Microplates in 180 μl of pre-warmed DMEM (4.5 g/L glucose, 10% FBS, and 1% Pen-Strep-Glutamine (100 X, 50 mg/mL)).
Following incubation at 37 °C in 5% CO2 for approximately 24 hours to allow for cell adherence, 1.8 μl of either SUW402 or SUW431 were added in triplicate to their respective wells to achieve a final compound concentration of either 50 nM or 500 nM, the two concentrations tested in the NF-κB assay. 24 hours after compound addition, the microplate containing cells treated with compound was spun at 1800 rpm for 3 minutes to allow for pelleting of cells and other debris before 150 μL of cellular supernatant was aspirated and transferred to a new Corning® 96 -well Clear Round Bottom TC-treated Microplate. Note that if the supernatant is not meant to be immediately analyzed, the microplate containing cellular supernatant should be paraf ilm, wrapped, and stored at -80 °C. Careful attention should be paid to avoiding freeze-thaw cycles. To quantify cytokine secretion within samples, dilutions were performed using Assay Buffer A included in the LEGEND MAX™ Human IL-8 ELISA Kit (Cat # 431507) and LEGEND MAX™ Human TNF-α ELISA Kit (Cat # 430207), respectively.
Immediately before running the assay, reagents were allowed to come to room temperature and diluted. Note that if the supernatant is frozen, it should be removed at this time and allowed to thaw. The 1X Wash Buffer was prepared by diluting the 20X Wash Buf fer with Invitrogen™ UltraPure™ DNase/RNase-Free Distilled Water. The lyophilized human IL-8 and TNF-α standards were reconstituted by adding the appropriate volume of Assay Buffer A to prepare the 20 ng/mL standard stock solutions. The reconstituted stand ards were allowed to sit at room temperature for 20 minutes before being gently vortexed to ensure complete mixing. To generate a standard curve for each cytokine, 500 μL of a 1,000 pg/mL top standard was prepared after which six two -fold serial dilutions of the top standard were performed in 1.7 mL microcentrifuge tubes using Assay
The Anti-Human IL-8 pre-coated 96-well Strip Microplate and Anti-Human TNF-α pre-coated 96-well Strip Microplate were each washed 4 times by hand. With each wash, at least 300 μL of 1X Wash Buffer was added per well and aspirated, and any residual buffer was removed by blotting the plate on an absorbent paper towel. Following this wash cycle, 50 μL of Assay Buffer A was added to each well that would ultimately contain sample or standard. To rigorously ensure no cellular debris was left in the analyte, an ad ditional centrifugation step was performed (1800 rpm for 3 minutes) before transferring 50 μL of sample or standard dilutions to the appropriate wells.
Adhesive plate sealers were utilized to cover the plates, prevent contamination, and avoid sample evaporation after which each plate was placed on a cell shaker and allowed to shake at room temperature at 200 rpm for 2 hours. Following incubation, the contents of each plate were discarded and subsequently washed by hand 4 times with 1X Wash Buffer, as previo usly reported. […]

T1 sequence (P05771 whole entry, the tested form may be a part): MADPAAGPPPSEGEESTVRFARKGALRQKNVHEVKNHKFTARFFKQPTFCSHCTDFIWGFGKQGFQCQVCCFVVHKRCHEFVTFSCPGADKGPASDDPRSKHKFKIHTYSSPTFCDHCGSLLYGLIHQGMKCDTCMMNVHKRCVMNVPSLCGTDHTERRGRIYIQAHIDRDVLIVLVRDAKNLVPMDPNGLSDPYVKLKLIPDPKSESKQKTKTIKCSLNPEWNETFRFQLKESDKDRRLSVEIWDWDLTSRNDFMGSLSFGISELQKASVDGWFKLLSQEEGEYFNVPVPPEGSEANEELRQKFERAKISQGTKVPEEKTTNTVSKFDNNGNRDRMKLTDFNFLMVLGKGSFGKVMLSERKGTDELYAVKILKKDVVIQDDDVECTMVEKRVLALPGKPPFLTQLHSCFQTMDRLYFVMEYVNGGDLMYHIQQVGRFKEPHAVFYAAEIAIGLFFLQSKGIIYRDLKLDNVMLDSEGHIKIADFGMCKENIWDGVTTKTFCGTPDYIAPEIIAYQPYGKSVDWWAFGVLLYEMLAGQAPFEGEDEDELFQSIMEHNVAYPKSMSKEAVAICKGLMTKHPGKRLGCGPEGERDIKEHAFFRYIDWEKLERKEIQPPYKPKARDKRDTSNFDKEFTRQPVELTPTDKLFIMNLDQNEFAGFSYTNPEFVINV
T2 sequence (Q05655 whole entry, the tested form may be a part): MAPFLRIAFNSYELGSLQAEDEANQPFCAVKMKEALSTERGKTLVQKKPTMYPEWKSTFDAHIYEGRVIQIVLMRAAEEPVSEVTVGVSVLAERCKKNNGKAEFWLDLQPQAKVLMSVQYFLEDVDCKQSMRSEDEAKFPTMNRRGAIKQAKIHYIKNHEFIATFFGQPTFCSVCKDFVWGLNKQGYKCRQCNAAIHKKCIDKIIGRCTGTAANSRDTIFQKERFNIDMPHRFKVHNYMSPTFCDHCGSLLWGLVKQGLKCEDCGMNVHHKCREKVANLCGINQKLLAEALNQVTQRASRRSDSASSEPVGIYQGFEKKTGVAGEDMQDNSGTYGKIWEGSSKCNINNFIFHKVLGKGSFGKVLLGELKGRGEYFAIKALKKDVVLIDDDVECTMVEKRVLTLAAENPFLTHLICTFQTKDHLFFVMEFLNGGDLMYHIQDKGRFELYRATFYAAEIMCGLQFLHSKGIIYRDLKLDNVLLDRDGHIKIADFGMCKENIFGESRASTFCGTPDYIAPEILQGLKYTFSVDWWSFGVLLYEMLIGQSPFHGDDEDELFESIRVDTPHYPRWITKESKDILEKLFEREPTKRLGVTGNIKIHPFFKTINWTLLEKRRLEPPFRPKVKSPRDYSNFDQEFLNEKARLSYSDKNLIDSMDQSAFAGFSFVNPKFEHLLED

| SMILES | translocation of PKC-β-GFP in words (PKC-β fused to GFP) | translocation of PKC-δ-GFP in words (PKC-δ fused to GFP) | TNF-α (ELISA) (tumor necrosis factor–α; 50 nM) [pg/mL] | TNF-α (ELISA) (tumor necrosis factor–α; 500 nM) [pg/mL] | tumor necrosis factor–α production in words (tumor necrosis factor–α; 500 and 50 nM) |
| --- | --- | --- | --- | --- | --- |
| C/C=C(\C)C(=O)O[C@@H]1[C@@H](C)[C@@]2(O)[C@H]([C@@H]3C(C)(C)[C@]13OC(=O)[C@@H](C)CC)[C@@H]1O[C@]1(CO)[C@@H](O)[C@]1(O)C(=O)C(C)=C[C@H]12 [EBC-46, Tigilanol tiglate] | effectively translocate PKC-β at 500 nM | selectively induced perinuclear translocation of PKC-δ |  |  |  |
| C/C=C(\C)C(=O)O[C@@H]1[C@@H](C)[C@@]2(O)[C@@H](C=C(CO)C[C@]3(O)C(=O)C(C)=C[C@@H]23)[C@@H]2C(C)(C)[C@]12OC(=O)[C@@H](C)CC [SUW402] |  |  | < 3.5 | < 3.5 | did not produce detectable levels of tumor necrosis factor–α at either concentration |
| CC[C@H](C)C(=O)O[C@@]12[C@H](OC(C)(C)C)[C@@H](C)[C@@]3(O)[C@H]([C@@H]1C2(C)C)[C@@H]1O[C@]1(CO)[C@@H](O)[C@]1(O)C(=O)C(C)=C[C@H]13 [SUW430] | effectively translocate PKC-β at 500 nM | selectively induced perinuclear translocation of PKC-δ |  |  |  |
| C/C=C(\C)C(=O)O[C@@H]1[C@@H](C)[C@@]2(O)[C@H]([C@@H]3C(C)(C)[C@]13OC(=O)Cc1cccc3ccccc13)[C@@H]1O[C@]1(CO)[C@@H](O)[C@]1(O)C(=O)C(C)=C[C@H]12 [SUW431] | effectively translocate PKC-β at 500 nM | strong perinuclear and plasma membrane translocation of PKC-δ | 4.4 | 8.4 |  |
